Results published in PMC8776995 (Frontiers in Chemistry, 2022).
“And” between values parts separate entries of the source, which are not always exact repeats. Equal entries are not always repeated.

Tests used:
wild-type EGFR = wild-type EGFR (Homo sapiens, UniProt P00533); test: EGFR kinase assay (ELISA); conditions: for A450: raw ELISA absorbance
H460 cells = test: CCK-8 antiproliferation assay, H460; conditions: for Inhibitory efficacy: H460 cells
Procedure: (§1) The compounds were dissolved in DMSO to make a 20 μM stock solution and diluted to the concentration of working solutions with complete growth medium before administration.
(§2) Cells were seeded in 96-well plates: 3,000–5,000 cells/well in 100 ul. One day after seeding, the test compounds at concentration between 1.0 and 16.0 μ M or 0.1% DMSO (as control) were added to cells in triplicate. 48 h later, CCK-8 was added and incubated the plate for 1–4 h in the incubator. The absorbance at 450 nm were measured using a microplate reader (Bio-Tek).

A549 cells = test: CCK-8 antiproliferation assay, A549; conditions: for Inhibitory efficacy: A549 cells
PC-9 cells = test: CCK-8 antiproliferation assay, PC-9; conditions: for Inhibitory efficacy: single repeats (Repeat 1-3), given as fraction
H1975 cells = test: CCK-8 antiproliferation assay, H1975; conditions: for Inhibitory efficacy: H1975 cells
Procedure: as §1, §2

[1] = 1uM, given as fraction, Repeat 1-3
[2] = 2uM, given as fraction, Repeat 1-3
[3] = 4uM, given as fraction, Repeat 1-3
[4] = 8uM, given as fraction, Repeat 1-3
[5] = 16uM, given as fraction, Repeat 1-3

Chain of wild-type EGFR (P00533 25-1210): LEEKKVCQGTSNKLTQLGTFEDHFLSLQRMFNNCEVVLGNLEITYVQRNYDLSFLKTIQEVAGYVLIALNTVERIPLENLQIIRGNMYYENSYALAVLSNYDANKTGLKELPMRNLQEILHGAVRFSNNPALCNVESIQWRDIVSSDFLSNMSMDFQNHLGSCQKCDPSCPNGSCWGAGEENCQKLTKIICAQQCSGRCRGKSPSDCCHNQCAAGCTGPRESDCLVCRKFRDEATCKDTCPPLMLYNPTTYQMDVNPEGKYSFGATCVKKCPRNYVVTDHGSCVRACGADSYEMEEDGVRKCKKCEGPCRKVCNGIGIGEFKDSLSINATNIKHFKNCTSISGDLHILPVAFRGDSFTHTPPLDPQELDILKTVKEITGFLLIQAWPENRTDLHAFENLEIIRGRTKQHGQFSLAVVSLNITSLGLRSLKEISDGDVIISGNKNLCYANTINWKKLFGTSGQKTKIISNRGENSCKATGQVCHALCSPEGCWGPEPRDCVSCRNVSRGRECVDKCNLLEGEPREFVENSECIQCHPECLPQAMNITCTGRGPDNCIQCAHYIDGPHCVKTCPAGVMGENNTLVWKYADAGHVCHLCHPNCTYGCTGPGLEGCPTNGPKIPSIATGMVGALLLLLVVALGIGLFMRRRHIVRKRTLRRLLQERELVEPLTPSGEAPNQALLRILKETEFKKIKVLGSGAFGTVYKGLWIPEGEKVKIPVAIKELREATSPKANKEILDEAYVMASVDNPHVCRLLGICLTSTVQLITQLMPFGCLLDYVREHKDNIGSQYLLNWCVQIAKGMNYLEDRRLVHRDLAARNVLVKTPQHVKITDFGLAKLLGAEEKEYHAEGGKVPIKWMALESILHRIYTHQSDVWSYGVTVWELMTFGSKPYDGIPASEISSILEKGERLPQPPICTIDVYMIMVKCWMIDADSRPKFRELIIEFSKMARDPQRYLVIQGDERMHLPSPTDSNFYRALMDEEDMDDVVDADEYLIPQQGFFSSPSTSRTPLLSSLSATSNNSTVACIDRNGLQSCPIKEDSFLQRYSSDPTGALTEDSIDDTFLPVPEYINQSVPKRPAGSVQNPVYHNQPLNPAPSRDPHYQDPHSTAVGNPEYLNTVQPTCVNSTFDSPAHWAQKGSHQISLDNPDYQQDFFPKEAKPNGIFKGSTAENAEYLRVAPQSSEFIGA

melting point: 100 to 103 °C | inhibition at 100 fM (wild-type EGFR; concentration 0.0001 nM (reference for normalisation), one value per replicate column): 0% | inhibition at 30 pM (wild-type EGFR; concentration 0.03 nM, one value per replicate column): 5.9% | Inhibition (wild-type EGFR; concentration 0.03 nM, one value per replicate column, 3e-05 µM): 7.547 | inhibition at 0.0003 µM (wild-type EGFR; concentration 0.3 nM, one value per replicate column): 9.63% | Inhibition (wild-type EGFR; concentration 0.3 nM, one value per replicate column, 0.0003 µM): 10.2916 | inhibition at 0.003 µM (wild-type EGFR; concentration 3 nM, one value per replicate column): 16.9% | Inhibition (wild-type EGFR; concentration 3 nM, one value per replicate column, 0.003 µM): 12.693 | inhibition at 0.03 µM (wild-type EGFR; concentration 30 nM, one value per replicate column): 21.1% | Inhibition (wild-type EGFR; concentration 30 nM, one value per replicate column, 0.03 µM): 13.2075 | inhibition at 0.3 µM (wild-type EGFR; concentration 300 nM, one value per replicate column): 25.3% | Inhibition (wild-type EGFR; concentration 300 nM, one value per replicate column, 0.3 µM): 17.1527 | inhibition at 3 µM (wild-type EGFR; concentration 3000 nM, one value per replicate column): 26.1% | Inhibition (wild-type EGFR; concentration 3000 nM, one value per replicate column, 3 µM): 22.2985 | inhibition at 30 µM (wild-type EGFR; concentration 30000 nM, one value per replicate column): 68.9% | Inhibition (wild-type EGFR; concentration 30000 nM, one value per replicate column, 30 µM): 69.1252 | A450 (wild-type EGFR; concentration 0.0001 nM): 0.879 and 0.798 | A450 (wild-type EGFR; concentration 0.03 nM): 0.841 and 0.754 | A450 (wild-type EGFR; concentration 0.3 nM): 0.817 and 0.738 | A450 (wild-type EGFR; concentration 3 nM): 0.77 and 0.724 | A450 (wild-type EGFR; concentration 30 nM): 0.743 and 0.721 | A450 (wild-type EGFR; concentration 300 nM): 0.716 and 0.698 | A450 (wild-type EGFR; concentration 3000 nM): 0.711 and 0.668 | A450 (wild-type EGFR; concentration 30000 nM): 0.435 and 0.395 | IC50 (wild-type EGFR; read-out: IC50 (μM) EGFR, ELISA, 3 μmol/L ATP): 12.4 µM | IC50 (H460 cells; Homo sapiens, NCI-H460, 48 h, read-out: IC50 (μM) H460, CCK-8, 48 h, average ± SD of three independent experiments): 4.3 ± 0.62 µM | IC50 (A549 cells; Homo sapiens, A549, 48 h, read-out: IC50 (μM) A549, CCK-8, 48 h, average ± SD of three independent experiments): 2.53 ± 0.2 µM | IC50 (PC-9 cells; Homo sapiens, PC-9, 48 h, read-out: IC50 (μM) PC-9): 15.2 ± 0.75 µM | IC50 (H1975 cells; Homo sapiens, NCI-H1975, 48 h, read-out: IC50 (μM) H1975, CCK-8, 48 h, average ± SD of three independent experiments): 10 ± 0.69 µM
SMILES: COCCOc1cc2ncnc(Nc3cccc(-c4cn(-c5ccc(C)cc5O)nn4)c3)c2cc1OCCOC [e18, 2-(4-{3-[6,7-Bis-(2-methoxy-ethoxy)-quinazolin-4-ylamino]-phenyl}-[1,2,3]triazol-1-yl)-5-methyl-phenol]
Inhibitory efficacy (H460 cells; [1]): 0.2332 and 0.2742 | Inhibitory efficacy (H460 cells; [2]): 0.4443 and 0.3282 | Inhibitory efficacy (H460 cells; [3]): 0.5163 and 0.5814 | Inhibitory efficacy (H460 cells; [4]): 0.5774 and 0.6654 | Inhibitory efficacy (H460 cells; [5]): 0.7445 and 0.6414 | inhibition at 1 µM (H460 cells; Homo sapiens, NCI-H460, read-out: Inhibitory efficacy, H460 cells, 1uM, given as fraction, Repeat 1-3): 17.1% | inhibition at 2 µM (H460 cells; Homo sapiens, NCI-H460, read-out: Inhibitory efficacy, H460 cells, 2uM, given as fraction, Repeat 1-3): 27.5% | inhibition at 4 µM (H460 cells; Homo sapiens, NCI-H460, read-out: Inhibitory efficacy, H460 cells, 4uM, given as fraction, Repeat 1-3): 55.5% | inhibition at 8 µM (H460 cells; Homo sapiens, NCI-H460, read-out: Inhibitory efficacy, H460 cells, 8uM, given as fraction, Repeat 1-3): 55% | inhibition at 16 µM (H460 cells; Homo sapiens, NCI-H460, read-out: Inhibitory efficacy, H460 cells, 16uM, given as fraction, Repeat 1-3): 72.3% | Inhibitory efficacy (A549 cells; [1]): 0.3234 and 0.3188 | Inhibitory efficacy (A549 cells; [2]): 0.4627 and 0.499 | Inhibitory efficacy (A549 cells; [3]): 0.5875 and 0.5347 | Inhibitory efficacy (A549 cells; [4]): 0.7578 and 0.7459 | Inhibitory efficacy (A549 cells; [5]): 0.8733 and 0.8713 | inhibition at 1 µM (A549 cells; Homo sapiens, A549, read-out: Inhibitory efficacy, A549 cells, 1uM, given as fraction, Repeat 1-3): 24.6% | inhibition at 2 µM (A549 cells; Homo sapiens, A549, read-out: Inhibitory efficacy, A549 cells, 2uM, given as fraction, Repeat 1-3): 37.2% | inhibition at 4 µM (A549 cells; Homo sapiens, A549, read-out: Inhibitory efficacy, A549 cells, 4uM, given as fraction, Repeat 1-3): 66.7% | inhibition at 8 µM (A549 cells; Homo sapiens, A549, read-out: Inhibitory efficacy, A549 cells, 8uM, given as fraction, Repeat 1-3): 73.2% | inhibition at 16 µM (A549 cells; Homo sapiens, A549, read-out: Inhibitory efficacy, A549 cells, 16uM, given as fraction, Repeat 1-3): 88.9% | inhibition at 8 µM (PC-9 cells; Homo sapiens, PC-9, read-out: Inhibitory efficacy, PC-9, 8uM, single repeats (Repeat 1-3), given as fraction): 25.2% | inhibition at 16 µM (PC-9 cells; Homo sapiens, PC-9, read-out: Inhibitory efficacy, PC-9, 16uM, single repeats (Repeat 1-3), given as fraction): 48.5% | Inhibitory efficacy (PC-9 cells; PC-9, 8uM, 8 µM): 0.3051 and 0.2654 | Inhibitory efficacy (PC-9 cells; PC-9, 16uM, 16 µM): 0.5238 and 0.4787 | Inhibitory efficacy (H1975 cells; [1]): 0.2067 and 0.1552 | Inhibitory efficacy (H1975 cells; [2]): 0.2381 and 0.2095 | Inhibitory efficacy (H1975 cells; [3]): 0.3038 and 0.341 | Inhibitory efficacy (H1975 cells; [4]): 0.4524 and 0.4681 | Inhibitory efficacy (H1975 cells; [5]): 0.6095 and 0.6024 | inhibition at 1 µM (H1975 cells; Homo sapiens, NCI-H1975, read-out: Inhibitory efficacy, H1975 cells, 1uM, given as fraction, Repeat 1-3): 16.5% | inhibition at 2 µM (H1975 cells; Homo sapiens, NCI-H1975, read-out: Inhibitory efficacy, H1975 cells, 2uM, given as fraction, Repeat 1-3): 26.2% | inhibition at 4 µM (H1975 cells; Homo sapiens, NCI-H1975, read-out: Inhibitory efficacy, H1975 cells, 4uM, given as fraction, Repeat 1-3): 33.4% | inhibition at 8 µM (H1975 cells; Homo sapiens, NCI-H1975, read-out: Inhibitory efficacy, H1975 cells, 8uM, given as fraction, Repeat 1-3): 46.7% | inhibition at 16 µM (H1975 cells; Homo sapiens, NCI-H1975, read-out: Inhibitory efficacy, H1975 cells, 16uM, given as fraction, Repeat 1-3): 55.4%
